The assay addresses T1, RORγ ligand-binding domain fused to Gal4 (Homo sapiens, UniProt P51449).
T1 construct: Gal4 (galactose-responsive transcription factor); expressed in transfected cells; host or cells: HEK293
T1 sequence (P51449 269-508 limits assumed): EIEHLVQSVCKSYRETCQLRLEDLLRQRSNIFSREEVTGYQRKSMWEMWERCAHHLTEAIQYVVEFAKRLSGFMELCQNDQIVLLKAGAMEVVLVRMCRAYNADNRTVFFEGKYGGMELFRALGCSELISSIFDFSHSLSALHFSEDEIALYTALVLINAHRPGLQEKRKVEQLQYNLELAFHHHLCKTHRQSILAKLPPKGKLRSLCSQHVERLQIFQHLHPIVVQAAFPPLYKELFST
Nature of the assay: RORγ Reporter Assay (Gal4). The format is cell-based. Here is the method:
The HEK293 cell line is co-transfected transiently with two plasmids, one with the RORγ ligand-binding domain fused to galactose-responsive transcription factor (Gal4), and the other with the luciferase reporter gene and Gal binding sites (UAS). This construction allows to determine the RORγ activity in a cellular system through the measurement of luminescence.
A suspension of RORγ reporter cells was dispensed into plates and cultured 2 h at 37° C. and 5% CO2. Media formulation consisted in DMEM/F-12 medium (Gibco) supplemented with 10% heat inactivated FBS (Sigma-Aldrich), non-essential aminoacids (Sigma-Aldrich), 2 mM Glutamax (Gibco) and 100 U/mL penicillin (Sigma-Aldrich). Dose-response curves with compounds were prepared in 100% DMSO and further diluted 100-fold in culture medium. Compound solutions were added to the plate containing cells (final DMSO concentration of 0.1%) and incubated for 24 h at 37° C. and 5% CO2. Luciferase detection reagent was added to each well, and relative light units (RLUs) were quantified from each assay well using a plate reading luminometer.
Values of average RLU±S.D. were computed for all treatment sets, followed by the calculations of percent-reduction of RORγ activity in response to respective test compound. The following formula was used: activity=100*[1−[x test compound/average vehicle] where the theoretical minimum reduction (0% reduction).
(A reporter such as luciferase makes a cellular process visible.)

Setting [1] is: HEK293 cells co-transfected with RORγ LBD-Gal4 and luciferase reporter, 24 h incubation, absolute EC50, read-out: EC50.

Where two headings read alike, the source gives them in different places.

In general, EC50 refers to the midpoint of the concentration-response curve. Take `CC(F)(F)c1ccc(CN(c2ncnc(NC[C@@H]3CCN(CC(N)=O)C[C@H]3O)c2F)C2CC2)cn1` (single isomer, unassigned) [Example A7-29-1]: the EC50 under setting [1] stood at 35 nM.

Consider `NC(=O)CN1CCC(CO)(CNc2ncnc(N(Cc3ccc(C(F)(F)F)cc3)C3CC3)c2F)C(O)C1` (single isomer, unassigned) [Example C4-1-2, 2-(4-(((6-(Cyclopropyl(4-(trifluoromethyl)benzyl)amino)-5-fluoropyrimidin-4-yl)amino)methyl)-3-hydroxy-4-(hydroxymethyl)piperidin-1-yl)acetamide], for which the EC50 (compounds of the present disclosure, source: Table 2 herein, read-out: Gal4 assay EC50) is less than 100 nM.

With `NC(=O)CN1CC[C@@](O)(CNc2ncnc(N(Cc3ccc(C(F)(F)F)cc3)C3CC3)c2F)[C@H](O)C1` (single isomer, unassigned) [Example D5-02-1-2], under setting [1], the EC50 stood at 61 nM. Still for that read-out and setting: to `CCN(Cc1ccc(C(F)(F)F)cc1F)c1ncnc(NC[C@]2(O)CCN(CC(N)=O)C[C@H]2O)c1F` (single isomer, unassigned) [Example D5-03-1-2] belongs 9.3 nM; to `NC(=O)CN1CC[C@@H](CNc2ncnc(N(Cc3ccc(OC(F)F)cc3F)C3CCC3)c2F)[C@H](O)C1` (stereo in doubt) [Example A7-15, rac-2-((3R,4R)-4-(((6-(cyclobutyl(4-(difluoromethoxy)-2-fluorobenzyl)amino)-5-fluoropyrimidin-4-yl)amino)methyl)-3-hydroxypiperidin-1-yl)acetamide], 160 nM; to `NC(=O)CN1CC[C@H](CNc2ncnc(N(Cc3ccc(OC(F)F)cc3F)C3CCC3)c2F)[C@@H](O)C1` (stereo in doubt) [Example A7-15-2, rel-2-((3R,4R)-4-(((6-(cyclobutyl(4-(difluoromethoxy)-2-fluorobenzyl)amino)-5-fluoropyrimidin-4-yl)amino)methyl)-3-hydroxypiperidin-1-yl)acetamide], 310 nM. For the compound `NC(=O)CN1CC[C@@H](CNc2ncnc(N(Cc3ccc(C(F)(F)F)cc3)C3CCC3)c2F)[C@H](O)C1` (stereo in doubt) [Example A7-16, rac-2-((3R,4R)-4-(((6-(cyclobutyl(4-(trifluoromethyl)benzyl)amino)-5-fluoropyrimidin-4-yl)amino)methyl)-3-hydroxypiperidin-1-yl)acetamide], the EC50 under setting [1] is 19 nM.

For `NC(=O)CN1CC[C@H](CNc2ncnc(N(Cc3ccc(C(F)(F)F)cc3)C3CCC3)c2F)[C@@H](O)C1` (stereo in doubt) [Example A7-16-2, rel-2-((3R,4R)-4-(((6-(cyclobutyl(4-(trifluoromethyl)benzyl)amino)-5-fluoropyrimidin-4-yl)amino)methyl)-3-hydroxypiperidin-1-yl)acetamide], the EC50 under setting [1] is 22 nM. On the same count and under the same terms, the result for `NC(=O)CN1CC[C@@H](CNc2ncnc(N(Cc3ccc(C(F)F)nc3)C3CC3)c2F)[C@H](O)C1` (stereo in doubt) [Example A7-25, rac-2-((3R,4R)-4-(((6-(cyclopropyl((6-(difluoromethyl)pyridin-3-yl)methyl)amino)-5-fluoropyrimidin-4-yl)amino)methyl)-3-hydroxypiperidin-1-yl)acetamide] reads 330 nM. Consider `NC(=O)CN1CC[C@H](CNc2ncnc(N(Cc3ccc(C(F)F)nc3)C3CC3)c2F)[C@@H](O)C1` (stereo in doubt) [Example A7-25-2, rel-2-((3R,4R)-4-(((6-(cyclopropyl((6-(difluoromethyl)pyridin-3-yl)methyl)amino)-5-fluoropyrimidin-4-yl)amino)methyl)-3-hydroxypiperidin-1-yl)acetamide], for which, under setting [1], the EC50 was determined as 320 nM.

Consider `CCN(Cc1ccc(C(F)(F)F)cc1F)c1ncnc(NC[C@@H]2CCN(CC(N)=O)C[C@H]2O)c1F` (stereo in doubt) [Example A7-26, rac-2-((3R,4R)-4-(((6-(ethyl(2-fluoro-4-(trifluoromethyl)benzyl)amino)-5-fluoropyrimidin-4-yl)amino)methyl)-3-hydroxypiperidin-1-yl)acetamide], for which the EC50 under setting [1] stood at 17 nM. Still for that read-out and setting: the result for `COC(=O)C1(CNc2ncnc(N(Cc3ccc(C(F)(F)F)cc3)C3CC3)c2F)CCN(CC(N)=O)CC1` [Example A7-08, methyl 1-(2-amino-2-oxoethyl)-4-(((6-(cyclopropyl(4-(trifluoromethyl)benzyl)amino)-5-fluoropyrimidin-4-yl)amino)methyl)piperidine-4-carboxylate] reads 15 nM; that for `NC(=O)CN1CCC(F)(CNc2ncnc(N(Cc3ccc4c(c3)OCC(=O)N4)C3CC3)c2F)CC1` [Example A7-12], 150 nM; that for `Cn1c(=O)oc2cc(CN(c3ncnc(NCC4(F)CCN(CC(N)=O)CC4)c3F)C3CC3)ccc21` [Example A7-13], 230 nM. As to `CC(c1ccc(C(F)(F)F)cc1)N(c1ncnc(NCC2CCN(CC(N)=O)CC2)c1F)C1CC1` (stereo not shown) [Example A7-34, 2-(4-(((6-(cyclopropyl(1-(4-(trifluoromethyl)phenyl)ethyl)amino)-5-fluoropyrimidin-4-yl)amino)methyl)piperidin-1-yl)acetamide], the EC50 under setting [1] was found to be 90 nM and the EC50 (compounds of the present disclosure, value from Table 2 herein, read-out: Gal4 assay EC50) is less than 100 nM. As to `NC(=O)CN1CCC(CNc2ncnc(N(Cc3ccc(C(F)(F)F)cn3)C3CC3)c2F)CC1` [Example A7-35, 2-(4-(((6-(cyclopropyl((5-(trifluoromethyl)pyridin-2-yl)methyl)amino)-5-fluoropyrimidin-4-yl)amino)methyl)piperidin-1-yl)acetamide], the concentration for a half-maximal effect (EC50) under setting [1] was 310 nM. Turning to `N#Cc1cccc(CN(c2ncnc(NCC3CCN(CC(N)=O)CC3)c2F)C2CC2)c1` [Example A7-36, 2-(4-(((6-((3-cyanobenzyl)(cyclopropyl)amino)-5-fluoropyrimidin-4-yl)amino)methyl)piperidin-1-yl)acetamide], the EC50 under setting [1] amounted to 860 nM. For the compound `NC(=O)CN1CCC(CNc2ncnc(N(Cc3ccc4c(c3)OCC(=O)N4)C3CC3)c2F)CC1` [Example A7-37], the EC50 under setting [1] was 670 nM.

As to `NC(=O)CN1CCC(CNc2ncnc(N(Cc3cccc(-n4cncn4)c3)C3CC3)c2F)CC1` [Example A7-38, 2-(4-(((6-((3-(1H-1,2,4-triazol-1-yl)benzyl)(cyclopropyl)amino)-5-fluoropyrimidin-4-yl)amino)methyl)piperidin-1-yl)acetamide], under setting [1], the EC50 turned out to be 590 nM. `NC(=O)CN1CCC(CNc2ncnc(N(Cc3ccc(C(F)(F)F)cc3)C3CC3)c2F)CC1` [Example A7-39, 2-(4-(((6-(cyclopropyl(4-(trifluoromethyl)benzyl)amino)-5-fluoropyrimidin-4-yl)amino)methyl)piperidin-1-yl)acetamide]: the EC50 under setting [1] was 37 nM. For the compound `Cc1cc(CN(c2ncnc(NCC3CCN(CC(N)=O)CC3)c2F)C2CC2)c(C)cc1Cl` [Example A7-46, 2-(4-(((6-((4-chloro-2,5-dimethylbenzyl)(cyclopropyl)amino)-5-fluoropyrimidin-4-yl)amino)methyl)piperidin-1-yl)acetamide], the EC50 under setting [1] was more than 1000 nM. The same measure, in the same setting: the result for `Cc1ccc(C)c(CN(c2ncnc(NCC3CCN(CC(N)=O)CC3)c2F)C2CC2)c1` [Example A7-47, 2-(4-(((6-(cyclopropyl(2,5-dimethylbenzyl)amino)-5-fluoropyrimidin-4-yl)amino)methyl)piperidin-1-yl)acetamide] reads more than 1000 nM. With `CC1CC(CNc2ncnc(N(Cc3ccc(C(F)(F)F)cc3)C3CC3)c2F)CCN1CC(N)=O` (stereo not shown) [Example A7-48], under setting [1], the EC50 was 17 nM. For the compound `Cc1cc(CN(c2ncnc(NCC3CCN(CC(N)=O)CC3)c2F)C2CC2)cc(C)c1Cl` [Example A7-53, 2-(4-(((6-((4-chloro-3,5-dimethylbenzyl)(cyclopropyl)amino)-5-fluoropyrimidin-4-yl)amino)methyl)piperidin-1-yl)acetamide], the EC50 under setting [1] is more than 1000 nM.

With `NC(=O)C(CO)N1CCC(CNc2ncnc(N(Cc3ccc(C(F)(F)F)cc3)C3CC3)c2F)CC1` (stereo not shown) [Example A7-64, 2-(4-(((6-(cyclopropyl(4-(trifluoromethyl)benzyl)amino)-5-fluoropyrimidin-4-yl)amino)methyl)piperidin-1-yl)-3-hydroxypropanamide], under setting [1], the EC50 worked out at 73 nM. As for `NC(=O)CN1CCC(CNc2ncnc(N(Cc3ccc(C(F)(F)F)cc3)C3CC3)c2F)(c2nc[nH]n2)CC1` [Example A7-80, 2-(4-(((6-(Cyclopropyl(4-(trifluoromethyl)benzyl)amino)-5-fluoropyrimidin-4-yl)amino)methyl)-4-(1H-1,2,4-triazol-3-yl)piperidin-1-yl)acetamide], under setting [1], the EC50 was determined as 53 nM. As for `Cn1cnnc1C1(CNc2ncnc(N(Cc3ccc(C(F)(F)F)cc3)C3CC3)c2F)CCN(CC(N)=O)CC1` [Example A7-83, 2-(4-(((6-(Cyclopropyl(4-(trifluoromethyl)benzyl)amino)-5-fluoropyrimidin-4-yl)amino)methyl)-4-(4-methyl-4H-1,2,4-triazol-3-yl)piperidin-1-yl)acetamide], the EC50 under setting [1] was more than 1000 nM.

The record behind these values is patent US12441704B2, “Compounds active towards nuclear receptors” (NUEVOLUTION A/S, priority 2019, dated 2025).
